{
  "source": "paper PMC2228077",
  "about": "“The bioavailability of oral GI147211 (GG211), a new topoisomerase I inhibitor” (British Journal of Cancer, 1997)",
  "key": {"[1]": {"assay": "Plasma pharmacokinetics and absolute bioavailability, oral day 1 vs 30-min i.v. infusion day 2, patients with solid tumours", "parameters": "mean maximal plasma concentration (Cmax) after intravenous dosing: dose or concentration left out as unconfirmed", "text": "British Journal of Cancer (1997) 76(7), 946-951 ? 1997 Cancer Research Campaign The bloavailability of oral Gil 47211 (GG21 1), a new topoisomerase I inhibitor CJH Gerrits', JHM Schellens', GJ Creemers', P Wissel2, ASTh Planting', JF Pritchard2, S DePee2, M de Boer-Dennert', M Harteveld' and J Verweij' 'Department of Medical Oncology, Rotterdam Cancer Institute (Daniel den Hoed Kliniek) and University Hospital, The Netherlands; 2Glaxo Wellcome, Department of Pharmacokinetics, NC, USA Summary Topoisomerase I inhibitors are new compounds of interest for cancer chemotherapy. We performed a study with Gl147211, a new semisynthetic camptothecin analogue, to determine the absolute bioavailability of the drug given orally. […] Gi147211 was given orally on day 1 and as a 30-min infusion daily on days 2-5. The treatment course was repeated every 3 weeks. In subsequent patient cohorts, the dose of the oral formulation was escalated from 1.5 mg m-2 to 6.0 mg m-2; the dose for i.v. administration was fixed at 1.2 mg m-2. Plasma pharmacokinetics was performed on day 1 and 2 of the first course and on day 1 of the second course using a validated high-performance liquid chromatographic assay. […] Keywords: G1147211 (GG211); bioavailability; topoisomerase I inhibitor; phase I study G1147211 [7-(methylpiperazinomethylene)-10,11-ethylenedioxy- 20(S)-camptothecin dihydrochloride] is a water-soluble semisyn- thetic analogue of camptothecin (CPT). […] Its further development was stopped because of unpredictable and severe myelosuppression, gastro- intestinal toxicity and haemorrhagic cystitis (Gottlieb et al, 1970; Creaven et al, 1972; Muggia et al, 1972). Interest in CPT was renewed in the 1980s, because topoiso- merase I was identified as the single cellular target of CPT (Hsiang et al, 1988 1989), and an overexpression of topoisomerase I was found in various tumour cell lines but not in normal tissues (Giovanella et al, 1989; Hirabayashi et al, 1992). Topoisomerase I is a nuclear enzyme that resolves topological problems of the torsionally strained (supercoiled) DNA by forming a covalent adduct between topoisomerase I and the DNA, termed the cleav- able complex. This catalytic intermediate creates single-strand DNA breaks, allowing the DNA molecule to rotate around the intact DNA strand at the cleavage site, leading to a relaxation of Received 29 November 1996 Revised 27 March 1997 Accepted 1 April 1997 Correspondence to: CJH Gerrits, Department of Medical Oncology, Rotterdam Cancer Institute, (Daniel den Hoed Kliniek) and University Hospital, Groene Hilledijk 301, 3075 EA Rotterdam, The Netherlands the DNA molecule, and in this way replication, transcription and other DNA functions can proceed. These enzyme-bridged breaks are then resealed by topoisomerase I (Champoux, 1976; Muller, 1985; Muller et al, 1985; Camilloni et al, 1989). […] It has been documented that camptothecin (CPT) interferes with the breakage-reunion process of topoiso- merase I by stabilizing the enzyme-DNA cleavable complexes (Liu et al, 1989)."}, "[2]": {"parameters": "method as in Gerrits et al, 1996", "settings": "i.v. daily x5 every 3 weeks; ref Gerrits et al, 1996; cited from earlier work"}, "[3]": {"settings": "individual patients 1-19, i.v. 1.2 mg m-2, Table 3"}, "[4]": {"settings": "individual patients, oral 6 mg m-2, Fed (after breakfast), Tables 3 and 4"}, "[5]": {"settings": "individual patients, oral 6 mg m-2, fasted, Table 3"}, "[6]": {"settings": "oral 6.0 mg m-2, lactone, Table 4"}},
  "note": "Several values for one entry are separate records, joined by “and”; a condition that tells them apart may be missing. Equal entries are not always repeated. Structures can show the parent of a compound that is named as a salt.",
  "data": [
    {"smiles": "CC[C@@]1(O)C(=O)OCc2c1cc1n(c2=O)Cc2c-1nc1cc3c(cc1c2CN1CCN(C)CC1)OCCO3", "note": "[GI147211, 7-(methylpiperazinomethylene)-10,11-ethylenedioxy-20(S)-camptothecin dihydrochloride]", "values": [
      {"measurement": "Oral AUC total, mean", "setting": "[1]; all oral doses 1.5-6 mg m-2, total = lactone plus acid, Table 3", "value": 36.33, "unit": "ng·h/mL"},
      {"measurement": "intrapatient variability of the absolute bioavailability, median", "setting": "[1]; course 1 vs course 2", "value": 31, "unit": "%"},
      {"measurement": "intrapatient variability of the absolute bioavailability, range", "setting": "[1]; course 1 vs course 2", "value": "3-88%"},
      {"measurement": "absolute bioavailability, range between patients", "setting": "[1]; human, in vivo", "value": "4.8-24.3%"},
      {"measurement": "mean maximal plasma concentration (Cmax) after intravenous dosing", "setting": "[1]; human, in vivo", "value": 21.76, "unit": "ng/mL"},
      {"measurement": "i.v. AUC, mean", "setting": "[1]; human, in vivo, iv, 1.2 mg", "value": 31.84, "unit": "ng·h/mL"},
      {"measurement": "cases with Tmax < 0.5 h", "setting": "[1]; human, in vivo, po", "value": "13 of 19"},
      {"measurement": "dose dependence of oral bioavailability", "setting": "[1]; human, in vivo, po", "value": "not dose dependent"},
      {"measurement": "median Tmax", "setting": "[1]; human, in vivo, po", "value": 0.5, "unit": "h"},
      {"measurement": "terminal half-life after oral administration (lactone), range", "setting": "[1]; human, in vivo, po", "value": "2.0 to 13.0", "unit": "h"},
      {"measurement": "Oral Tmax", "setting": "[1]; human, in vivo, po, 1.5 mg", "value": 0.25, "unit": "h"},
      {"measurement": "Absolute bioavailability fasted, mean", "setting": "[1]; human, in vivo, po, 6 mg", "value": 11.4, "unit": "%"},
      {"measurement": "Absolute bioavailability fed, mean", "setting": "[1]; human, in vivo, po, 6 mg", "value": 11.2, "unit": "%"},
      {"measurement": "Oral Tmax fasted, mean", "setting": "[1]; human, in vivo, po, 6 mg", "value": 0.65, "unit": "h"},
      {"measurement": "Oral Tmax fed, mean", "setting": "[1]; human, in vivo, po, 6 mg", "value": 0.69, "unit": "h"},
      {"measurement": "influence of fasting or fed state on bioavailability", "setting": "[1]; human, in vivo, po, 6 mg", "value": "no significant influence"},
      {"measurement": "influence of fed or fasted state on Tmax", "setting": "[1]; human, in vivo, po, 6 mg", "value": "not significantly influenced"},
      {"measurement": "mean maximal plasma concentration (Cmax) after oral dosing", "setting": "[1]; human, in vivo, po, 6 mg", "value": "4.02 ? 3.57 ng ml-1"},
      {"measurement": "i.v. t1/2, mean", "setting": "[1]; i.v. 1.2 mg m-2, 13 patients of 6.0 mg m-2 level, Table 4", "value": 8.53, "unit": "h"},
      {"measurement": "Oral AUC total", "setting": "[1]; individual patient 18, oral 6 mg m-2, Fed, lactone plus acid, Table 3", "value": 14.69, "unit": "ng·h/mL"},
      {"measurement": "i.v. AUC", "setting": "[1]; [3]", "value": 19.11, "unit": "ng·h/mL"},
      {"measurement": "i.v. t1/2", "setting": "[1]; [3]", "value": "6.2 h (2×) and 6.0 h and 14.3 h and 5.6 h and 6.7 h and 7.0 h and 5.2 h and 9.5 h and 10.9 h and 10.5 h and 8.9 h and 6.8 h and 4.5 h and 18.6 h and 14.6 h and 7.2 h and 1.9 h and 4.9 h"},
      {"measurement": "Oral t1/2", "setting": "[1]; individual patients, oral 1.5 mg m-2, Table 3", "value": "2.5 h and 4.0 h"},
      {"measurement": "Oral AUC total", "setting": "[1]; individual patients, oral 1.5 mg m-2, lactone plus acid, Table 3", "value": "3.12 ng·h/mL and 11.16 ng·h/mL"},
      {"measurement": "Oral t1/2", "setting": "[1]; individual patients, oral 3 mg m-2, Table 3", "value": "12.2 h and 7.7 h and 9.5 h and 5.1 h"},
      {"measurement": "Oral AUC total", "setting": "[1]; individual patients, oral 3 mg m-2, lactone plus acid, Table 3", "value": "70.82 ng·h/mL and 12.81 ng·h/mL and 15.21 ng·h/mL and 24.05 ng·h/mL"},
      {"measurement": "Oral t1/2", "setting": "[1]; individual patients, oral 3 mg m-2, second course (C2), Table 3", "value": "2.0 h and 11.7 h"},
      {"measurement": "Absolute bioavailability Lactone", "setting": "[1]; [4]", "value": "10.5% and 11.9%"},
      {"measurement": "Oral t1/2", "setting": "[1]; [4]", "value": "8.7 h and 6.0 h (2×) and 8.2 h and 11.1 h and 11.9 h and 4.1 h and 3.4 h and 3.5 h"},
      {"measurement": "Absolute bioavailability Lactone", "setting": "[1]; [5]", "value": 11.1, "unit": "%"},
      {"measurement": "Absolute bioavailability Total", "setting": "[1]; [5]", "value": 11.1, "unit": "%"},
      {"measurement": "Oral t1/2", "setting": "[1]; [5]", "value": "4.2 h and 4.5 h and 4.3 h (2×) and 6.1 h and 10.4 h and 9.7 h and 7.8 h and 6.2 h and 13.0 h and 6.7 h and 5.0 h and 3.7 h"},
      {"measurement": "Oral AUC total", "setting": "[1]; individual patients, oral 6 mg m-2, fasted, lactone plus acid, Table 3", "value": "157.68 ng·h/mL and 30.60 ng·h/mL and 36.73 ng·h/mL and 39.35 ng·h/mL and 55.59 ng·h/mL and 27.76 ng·h/mL and 13.89 ng·h/mL and 28.78 ng·h/mL and 30.71 ng·h/mL and 40.52 ng·h/mL and 40.50 ng·h/mL"},
      {"measurement": "Oral t1/2", "setting": "[1]; individual patients, oral 6 mg m-2, second course (C2), Table 3", "value": "7.8 h and 7.2 h"},
      {"measurement": "courses in which plasma concentrations could be measured at 24 h", "setting": "[1]; oral", "value": "21 % of courses"},
      {"measurement": "courses in which plasma concentration-time curves could be measured up to 12 h", "setting": "[1]; oral 6.0 mg m-2, lactone and total", "value": "68 % of courses"},
      {"measurement": "Oral t1/2 fasted, mean", "setting": "[1]; [6]", "value": 6.61, "unit": "h"},
      {"measurement": "Oral t1/2 fed, mean", "setting": "[1]; [6]", "value": 6.84, "unit": "h"},
      {"measurement": "main toxicity", "setting": "[2]", "value": "myelosuppression"}
    ]}
  ]
}
